Laboratory results reported in patent US20090209633A1, “Treatment of Pain With Resiniferatoxin and Related Analogs” (priority 2006, published 2009).

Molecular target: T1, native TRPV1 (Rattus norvegicus, UniProt O35433)
T1 construct: RTX-induced membrane currents on native TRPV1 in embryonic DRG neurons grown in culture; endogenous in cells; host or cells: primary rat E18 DRG neurons
Assay: Single-channel currents in cell-attached patches from DRG neurons
Format: cell-based
Design: Open time τ4 / Closed time τ1 / Closed time τ2 / Closed time τ3 / Closed time τ4: unit not given here
Conditions: for single-channel conductance / single-channel current amplitude / Po (single-channel open probability): cell-attached; for single-channel conductance / single-channel current amplitude: RTX, capsaicin 100 nM; for Closed time τ4 / Open time τ4 / Closed time τ1 / Closed time τ2 / Closed time τ3 / Open time τ1 / Open time τ2 / Open time τ3 / Po (single-channel open probability): CAP 100 nM; for Closed time τ1 / Closed time τ2 / Closed time τ3 / Open time τ1 / Open time τ2 / Open time τ3 / Po (single-channel open probability): RTX 0.1 nM; for slope conductance, inward limb / negative potentials: between 0 and −100 mV
Text: For single-channel recording in cell-attached patches from DRG neurons, the bath solution contained (mM): potassium gluconate 140, KCl 2.5, MgCl2 1, Hepes 5 and EGTA 1.5; pH adjusted to 7.35 with NaOH. The patch pipettes were made from glass capillaries (Drummond, Microcaps), coated with Sylgard (Dow Corning, Midland, Mich., USA). For cell-attached patches, the patch pipettes were filled with a solution that contained (mM): sodium gluconate 140, NaCl 10, MgCl2 1, Hepes 5 and EGTA 1.5; pH adjusted to 7.35 with NaOH. While recording from cell-attached patches, in order to avoid differences in the driving force because of the differences in the membrane potential, the external NaCl was replaced by an equal amount of KCl in order to nullify the membrane potential. For outside-out patches, the pipette solution contained (mM): sodium gluconate 90, NaCl 10, BAPTA 10, Hepes 10, K2ATP2 and GTP 0.25; pH adjusted to 7.35 with NaOH. The bath solution contained (mM): sodium gluconate 100, KCl 2.5, MgCl2 1, Hepes 5 and EGTA 1.5; pH adjusted to 7.35 with NaOH. All the experiments were performed at room temperature (21-23° C.). Agar-bridge electrodes were used to avoid changes in junction potential. The currents were recorded using a WPC 100 (Warner Instruments) or Axopatch 2B (Axon Instruments, Union City, Calif., USA) patch-clamp amplifier. Data were filtered at 10 kHz (Axopatch 2B), digitized (VR-10B, Instrutech Corp.), and stored on videotapes. For the analysis of amplitude and open probability (Po), the data were filtered at 2.5 kHz (−3 db frequency with an 8-pole low-pass Bessel filter, Warner Instruments) and digitized at 5 kHz. For dwell-time analysis, the data were filtered at 10 kHz and digitized at 50 kHz.
Single-channel analysis. Single-channel current amplitude and Po were estimated from all-point current amplitude histograms (Channel 2 software kindly provided by Michael Smith, Australian National University, Can berra, Australia) and fitted to Gaussian densities (Origin, OriginLab Corp., Northampton, Mass., USA). For current-voltage relationships, the amplitudes were determined by fitting a Gaussian curve to an all-point histogram. Po was determined using unedited segments of data, which were typically 1-5 min long. For multiple channel patches, the mean Po was measured as nPo, where n is the number of channels in the patch. Chord conductance was measured at +60 or −60 mV. […]
Single-channel currents were idealized using a modified Viterbi algorithm (QUB software, www.qub.buffalo.edu). Dwell-time distributions were fitted with mixtures of exponential densities using a method of maximum likelihood. Additional exponential components were incorporated only if the maximum log likelihood increased more than 2 log likelihood units. (Chung et al. 1990; Qin et al. 1996; Premkumar et al. 1997.) A dead time (Td) of 50 μs was imposed retrospectively, in that, events shorter than 50 μs were considered to be a part of the adjoining sojourns.
Single-channel conductance. To further evaluate the properties of TRPV1 activation by RTX, we recorded single-channel currents from cell-attached and excised patches from DRG neurons and oocytes heterologously expressing TRPV1. All recordings were carried out in the absence of extracellular calcium to avoid tachyphylaxis and desensitization of channel activity. (Docherty et al. 1996; Caterina et al. 1997; Koplas et al. 1997.) Single-channel current activity in cell-attached patches from DRG neurons were recorded at −60 and +60 mV, as shown in FIG. 3.

T1 sequence (O35433 whole entry): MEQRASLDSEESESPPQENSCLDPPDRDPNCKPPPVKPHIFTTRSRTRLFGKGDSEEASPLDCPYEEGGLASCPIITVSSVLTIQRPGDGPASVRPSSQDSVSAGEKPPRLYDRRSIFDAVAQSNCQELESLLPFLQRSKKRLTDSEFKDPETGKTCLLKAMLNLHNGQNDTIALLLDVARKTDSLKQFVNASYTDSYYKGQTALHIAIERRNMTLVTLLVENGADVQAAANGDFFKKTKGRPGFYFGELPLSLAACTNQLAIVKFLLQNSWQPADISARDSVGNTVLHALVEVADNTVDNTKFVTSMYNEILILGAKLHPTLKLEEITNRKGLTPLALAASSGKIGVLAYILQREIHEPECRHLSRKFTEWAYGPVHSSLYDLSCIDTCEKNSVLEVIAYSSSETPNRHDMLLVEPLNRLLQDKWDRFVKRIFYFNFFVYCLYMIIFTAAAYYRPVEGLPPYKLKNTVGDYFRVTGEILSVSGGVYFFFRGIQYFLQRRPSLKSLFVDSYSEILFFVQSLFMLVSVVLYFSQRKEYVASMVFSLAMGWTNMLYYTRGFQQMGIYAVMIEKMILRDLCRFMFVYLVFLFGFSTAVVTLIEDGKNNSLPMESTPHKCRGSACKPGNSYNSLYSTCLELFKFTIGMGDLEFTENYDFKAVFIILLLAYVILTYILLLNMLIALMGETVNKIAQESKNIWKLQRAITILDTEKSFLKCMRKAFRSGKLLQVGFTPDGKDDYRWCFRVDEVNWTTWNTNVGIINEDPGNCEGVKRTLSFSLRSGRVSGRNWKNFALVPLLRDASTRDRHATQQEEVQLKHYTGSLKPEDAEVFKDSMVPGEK

COc1cc(CNC(=O)CCCC/C=C/C(C)C)ccc1O [capsaicin]
mean open time (+60 mV): 3.8 ms | single-channel conductance (+60 mV): 95±0.1 pS | single-channel current amplitude (+60 mV): 5.67±0.06 pA | Closed time τ4 (Vm +60 mV): 70.84±47 | Open time τ4 (Vm +60 mV): 14.7±2.6 | Closed time τ4 (Vm +60 mV, listed as CAP): 70.84 ± 47 | Open time τ4 (Vm +60 mV, listed as CAP): 14.7 ± 2.6 | Closed time τ1 (Vm +60 mV): 0.06±0.02 | Closed time τ2 (Vm +60 mV): 0.67±0.39 | Closed time τ3 (Vm +60 mV): 1.66±0.39 | Open time τ1 (Vm +60 mV): 0.14 ± 0.04 ms | Open time τ2 (Vm +60 mV): 0.7 ± 0.13 ms | Open time τ3 (Vm +60 mV): 3.83 ± 0.62 ms | Closed time τ1 (Vm +60 mV, listed as CAP): 0.06 ± 0.02 | Closed time τ2 (Vm +60 mV, listed as CAP): 0.67 ± 0.39 | Closed time τ3 (Vm +60 mV, listed as CAP): 1.66 ± 0.39 | Open time τ1 (Vm +60 mV, listed as CAP): 0.14 ± 0.04 ms | Open time τ2 (Vm +60 mV, listed as CAP): 0.7 ± 0.13 ms | Open time τ3 (Vm +60 mV, listed as CAP): 3.83 ± 0.62 ms | Po (single-channel open probability) (Vm +60 mV): 0.53±0.04 | Po (single-channel open probability) (Vm +60 mV, listed as CAP): 0.53 ± 0.04 | Closed time τ4 (Vm −60 mV): 30.8±12.4 | Closed time τ4 (Vm −60 mV, listed as CAP): 30.8 ± 12.4 | Closed time τ1 (Vm −60 mV): 0.13±0.02 | Closed time τ2 (Vm −60 mV): 0.79±0.12 | Closed time τ3 (Vm −60 mV): 3.47±0.59 | Open time τ1 (Vm −60 mV): 0.11 ± 0.01 ms | Open time τ2 (Vm −60 mV): 0.76 ± 0.18 ms | Open time τ3 (Vm −60 mV): 2.61 ± 0.84 ms | Closed time τ1 (Vm −60 mV, listed as CAP): 0.13 ± 0.02 | Closed time τ2 (Vm −60 mV, listed as CAP): 0.79 ± 0.12 | Closed time τ3 (Vm −60 mV, listed as CAP): 3.47 ± 0.59 | Open time τ1 (Vm −60 mV, listed as CAP): 0.11 ± 0.01 ms | Open time τ2 (Vm −60 mV, listed as CAP): 0.76 ± 0.18 ms | Open time τ3 (Vm −60 mV, listed as CAP): 2.61 ± 0.84 ms | Po (single-channel open probability) (Vm −60 mV): 0.1±0.04 | Po (single-channel open probability) (Vm −60 mV, listed as CAP): 0.1 ± 0.04 | slope conductance, inward limb / negative potentials: 41 pS | conductance level at which currents predominantly dwelled (capsaicin-induced currents): ~95 pS | mean open time (−60 mV): 1.27 ms | single-channel conductance (−60 mV): 40±1.95 pS | single-channel current amplitude (−60 mV): 2.4±0.12 pA

C=C(C)[C@]12C[C@@H](C)[C@@]34O[C@](Cc5ccccc5)(O[C@@H]1[C@@H]3C=C(COC(=O)Cc1ccc(O)c(OC)c1)C[C@]1(O)C(=O)C(C)=C[C@@H]41)O2 [RTX, resiniferatoxin]
mean open time (+60 mV): 7.9 ms | single-channel conductance (+60 mV): 100±2.2 pS | single-channel current amplitude (+60 mV): 6.02±0.14 pA | change of Po with increasing concentration (RTX 0.1 to 20 nM): did not change | Closed time τ1 (Vm +60 mV): 0.1±0.008 | Closed time τ2 (Vm +60 mV): 0.46±0.02 | Closed time τ3 (Vm +60 mV): 8.7±3.9 | Open time τ1 (Vm +60 mV): 1.6 ± 1.2 ms | Open time τ2 (Vm +60 mV): 6.58 ± 0.56 ms | Open time τ3 (Vm +60 mV): 12 ± 1 ms | Po (single-channel open probability) (Vm +60 mV): 0.98±0.02 | Closed time τ1 (Vm −60 mV): 0.05±0.007 | Closed time τ2 (Vm −60 mV): 0.12±0.005 | Closed time τ3 (Vm −60 mV): 1.1±0.26 | Open time τ1 (Vm −60 mV): 0.46 ± 0.1 ms | Open time τ2 (Vm −60 mV): 5.57 ± 2.4 ms | Open time τ3 (Vm −60 mV): 10.2 ± 1.8 ms | Po (single-channel open probability) (Vm −60 mV): 0.94±0.02 | slope conductance, outward limb / positive potentials (between 0 and +100 mV): 126 pS | slope conductance, inward limb / negative potentials: ~30 pS | Po of RTX-induced currents (cell-attached as well as outside-out patches, negative and positive potentials): ~0.9 | reversal potential of single-channel currents (recorded −100 to +100 mV): −2.9 mV | concentration that could maximally activate the receptor (single-channel recording): 0.1 to 0.2 nM | mean open time (−60 mV): 7.5 ms | single-channel conductance (−60 mV): 38.3±3.5 pS | single-channel current amplitude (−60 mV): 2.3±0.21 pA
